Measurements: patent US20250206758A1, “SUBSTITUTED BRIDGED RING INHIBITOR, PREPARATION METHOD THEREFOR AND APPLICATION THEREOF” (SUZHOU ZELGEN BIOPHARMACEUTICALS CO., LTD., priority 2022, published 2025)
One block for each compound: values may come before it.

How the values were obtained:
[1] = system: ERK phosphorylation in KRAS^G12D mutant cells (GP2D); test: GP2D ERK phosphorylation inhibition experiment; format: cell-based; conditions: 1 hour compound, hEGF 10 minutes
Procedure: (§1) KRAS^G12D mutant cells (such as GP2D, AGS, etc.) were seeded in a 384-well plate and cultured overnight in a 37° C., 5% CO2 incubator.
(§2) 200 nL of diluted compound was added with Echo 500 to a final DMSO concentration of 0.5%, and cultured in a 37° C., 5% CO2 incubator for 1 hour. Then hEGF was added for acting for 10 minutes.
(§3) The culture medium was discarded, and then cell fixative was added to fix the cells.
(§4) The cells were washed once with PBS, and then incubated with cold 100% methanol.
(§5) Methanol was removed and the cells were washed with PBS.
(§6) PBS was removed, and each well was added with Li-Cor blocking buffer, and blocked at room temperature for 1 hr.
(§7) The blocking solution was removed, and primary antibody mixture was added to each well, and incubated at […] 4° C. overnight.
(§8) The primary antibody mixture was removed, and the cells were washed by adding PBST for 3 times.
(§9) Secondary antibody mixture was added and incubated at room temperature in the dark for 45 min.
(§10) The secondary antibody mixture was removed, and the cells were washed by adding PBST for 3 times. Finally, PBST was suctioned out, and the plate was centrifuged upside down at 1000 rpm for 1 min.
(§11) The plate was read by Odyssey CLx.

[2] = system: ERK phosphorylation in KRAS^G12D mutant cells (AGS); test: AGS ERK phosphorylation inhibition experiment; format: cell-based; conditions: 1 hour compound, hEGF 10 minutes
Procedure: as §1, §2, §3, §4, §5, §6, §7, §8, §9, §10, §11

AGS = test: Cell proliferation inhibition, AGS (CellTiter-Glo 3D, 7 days); format: cell-based; conditions: Homo sapiens, 168 h
Procedure: • (a) Resuscitating cells in T75 cell culture flask: • (b) When the cell confluence reaches 80-90%, subculturing the cells.
The diluted test compound was added to a 384-well cell culture plate with a nanoliter pipetting system, and duplicate wells were set up. An equal volume of culture medium was added to the positive control group; and an equal volume of DMSO was added to the negative control group, then centrifugation was conducted at 1000 rpm for 1 min at room temperature.
Cells were inoculated into a) 384-well culture plate, with an equal volume of cells added to the negative control group, and only an equal volume of culture medium added to the positive control group. The plate was centrifuged at 1000 rpm for 1 min at room temperature, and the final DMSO concentration of the compound was 0.5% at last. The plate was placed in a 37° C., 5% CO2 constant temperature incubator for 7 days.
20 μL/well of CellTiter-Glo® 3D to b) was added to 384-well cell culture plate, and the plate was shook at 320 rpm for 20 min in the dark, and incubated at room temperature in the dark for 2 hrs.
The luminescence value was read using an Envision multi-functional microplate reader.
The inhibition rate (IR) of the test compound was calculated using the following formula: IR (%)=(1−(RLU compound−RLU blank control)/(RLU meidum control−RLU blank control))*100%. The inhibition rates of different concentrations of compounds were calculated in Excel, and then the inhibition curves were plotted and the related parameters (including the minimum inhibition rate, maximum inhibition rate and IC50) were calculated using GraphPad Prism software.

AsPC-1 = test: Cell proliferation inhibition, AsPC-1 (CellTiter-Glo 3D, 7 days); format: cell-based; conditions: Homo sapiens, ASPC1, 168 h; AsPC-1, 7 days
Summary of the method: (§12)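 Cells exposed to compound (final DMSO 0.5%) in duplicate for 7 days at 37 °C, 5% CO2, then CellTiter-Glo 3D added with 20 min shaking and 2 h dark incubation before luminescence. Inhibition normalized to medium and blank controls; IC50, minimum and maximum inhibition from curve fits.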

GP2D = test: Cell proliferation inhibition, GP2D (CellTiter-Glo 3D, 7 days); format: cell-based; conditions: 168 h
Summary of the method: as §12

[3] = Pharmacokinetic test evaluation in mice, oral; conditions: male ICR mice, oral 30 mg/kg, plasma
Procedure: (§13) Male ICR mice, weighing 22-24 g, were fasted overnight and orally administered with 30 mg/kg of a solution of the compound of the present invention or the control compound [10% DMSO+60% PEG400+30% aqueous solution]. Blood was collected at 0.25, 0.5, 1.0, 2.0, 4.0, 6.0, 8.0, 12.0 and 24 h after administration of the compound of the present invention respectively, and the concentration of the compound of the present invention or the control compound in plasma was determined by LC/MS/MS.

in vivo = conditions: male, ICR, mouse, po, 30 mg/kg
Procedure: as §13

Compound: C#Cc1c(F)ccc2cc(O)cc(-c3ncc4c(N5C[C@H]6CC[C@@H](C5)N6)nc(OC[C@@]56CCCN5[C@@H](COC)CC6)nc4c3F)c12 [Example 1 Isomer 1B, 4-(4-((1R,5S)-3,8-diazabicyclo[3.2.1]octan-3-yl)-8-fluoro-2-((3R,7aS)-(3-(methoxymethyl)tetrahydro-1H-pyrrolizin-7a(5H)-yl)methoxy)pyridino[4,3-d]pyrimidin-7-yl)-5-ethynyl-6-fluoronaphthalen-2-ol]
IC50 [1]: 2.1 nM | IC50 ([2]; Homo sapiens): 3.76 nM

IC50 (AGS): 5.15 nM | IC50 (AsPC-1): 6.77 nM | AUC0-∞ [3]: BLOQ | AUC(0-t) [3]: BLOQ | Cmax [3]: BLOQ
Compound: C#Cc1c(F)ccc2cc(O)cc(-c3ncc4c(N5CC6CCC(C5)N6)nc(OC[C@@]56CCCN5C[C@H](F)C6)nc4c3F)c12 [MRTX1133, reference compound]
IC50 (GP2D): 1.28 nM

IC50 [2]: 3.34 nM
Compound: C#Cc1c(F)ccc2cc(O)cc(-c3ncc4c(N5C[C@H]6CC[C@@H](C5)N6)nc(OCC56CCCN5CC5(C6)CC5(F)F)nc4c3F)c12 (single isomer, unassigned) [Example 16B]

IC50 [2]: 10.6 nM
Compound: C#Cc1c(F)ccc2cc(O)cc(-c3ncc4c(N5C[C@H]6CC[C@@H](C5)N6)nc(OCC56CCCN5CC5(C6)CC5(F)F)nc4c3F)c12 (single isomer, unassigned) [Example 16A]

Compound: C#Cc1c(F)ccc2cc(O)cc(-c3ncc4c(N5CC6CCC(C5)N6)nc(OCC56CCCN5CC5(CC5)C6)nc4c3F)c12 [Example 9, 4-(4-(1R,5S)-3,8-diazabicyclo[3.2.1]octan-3-yl)-2-(dihydro-1′H,3′H-spiro[1,2′-pyrrolizin]-7a′(5′H)-yl)methoxy)-8-fluoropyridino[4,3-d]pyrimidin-7-yl)-5-ethynyl-6-fluoro-naphthalen-2-ol]
IC50 ([2]; Homo sapiens): 8.2 nM

Compound: C#Cc1c(F)ccc2cc(O)cc(-c3ncc4c(N5C[C@H]6CC[C@@H](C5)N6)nc(OC[C@]56CCCN5[C@@H](COC)CC6)nc4c3F)c12 [Example 1 Isomer 2A, 4-(4-((1R,5S)-3,8-diazabicyclo[3.2.1]octan-3-yl)-8-fluoro-2-((3R,7aR)-(3-(methoxymethyl)tetrahydro-1H-pyrrolizin-7a(5H)-yl)methoxy)pyridino[4,3-d]pyrimidin-7-yl)-5-ethynyl-6-fluoronaphthalen-2-ol]
IC50 ([2]; Homo sapiens): 19 nM

Compound: C#Cc1c(F)ccc2cc(O)cc(-c3ncc4c(N5C[C@H]6CC[C@@H](C5)N6)nc(OC[C@@]56CCCN5[C@H](COC)CC6)nc4c3F)c12 [Example 1 Isomer 2B, 4-(4-((1R,5S)-3,8-diazabicyclo[3.2.1]octan-3-yl)-8-fluoro-2-((3S,7aS)-(3-(methoxymethyl)tetrahydro-1H-pyrrolizin-7a(5H)-yl)methoxy)pyridino[4,3-d]pyrimidin-7-yl)-5-ethynyl-6-fluoronaphthalen-2-ol]
IC50 ([2]; Homo sapiens): 139 nM

Compound: Nc1cc(Cl)c(C(F)(F)F)c(-c2ncc3c(N4C[C@H]5CC[C@@H](C4)N5)nc(OC[C@@]45CCCN4C[C@@]4(CC4(F)F)C5)nc3c2F)c1 [Example 27, 3-(4-((1R,5S)-3,8-diazabicyclo[3.2.1]octan-3-yl)-2-(((1S,7a'S)-2,2-difluorodihydro-1′H,3′H-spiro[cyclopropan-1,2′-pyrrolizin]-7a′(5′H)-yl)methoxy)-8-fluoropyridino[4,3-d]pyrimidin-7-yl)-5-chloro-4-(trifluoromethyl)aniline]
AUC(0-inf) (in vivo): 5650 ng·h/mL | AUC(0-t) (in vivo): 5090 ng·h/mL | Cmax (in vivo): 953 ng/mL | Tmax (in vivo): 0.25 h | half-life (in vivo): 9.32 h | IC50 (AGS): 5.24 nM | IC50 (AsPC-1): 4.14 nM | IC50 (GP2D): 0.38 nM

Compound: C#Cc1c(F)ccc2cc(O)cc(-c3ncc4c(N5C[C@H]6CC[C@@H](C5)N6)nc(OC[C@]56CCCN5[C@H](COC)CC6)nc4c3F)c12 [Example 1 Isomer 1A, 4-(4-((1R,5S)-3,8-diazabicyclo[3.2.1]octan-3-yl)-8-fluoro-2-((3S,7aR)-(3-(methoxymethyl)tetrahydro-1H-pyrrolizin-7a(5H)-yl)methoxy)pyridino[4,3-d]pyrimidin-7-yl)-5-ethynyl-6-fluoronaphthalen-2-ol]
IC50 [1]: 2.6 nM | IC50 ([2]; Homo sapiens): 9.67 nM
